Assay: xn = mol fraction of the nth substance listed
Settings: Liquid, Vibrating tube method

CC(C)C [2-methylpropane] + CCCC
Settings | mass density [kg/m3]
240 K, 468.1 kPa, x2 = 0.5 | 626.35
240 K, 481.6 kPa, x2 = 0.25 | 621.79
240 K, 499 kPa, x2 = 0.75 | 631.33
240 K, 989.5 kPa, x2 = 0.5 | 626.9
240 K, 999.5 kPa, x2 = 0.25 | 622.36
240 K, 1001 kPa, x2 = 0.75 | 631.85
240 K, 1472.5 kPa, x2 = 0.5 | 627.41
240 K, 1500.2 kPa, x2 = 0.75 | 632.38
240 K, 1503.1 kPa, x2 = 0.25 | 622.9
240 K, 1962.6 kPa, x2 = 0.5 | 627.92
240 K, 2001.8 kPa, x2 = 0.25 | 623.43
240 K, 2011.4 kPa, x2 = 0.75 | 632.88
240 K, 2468.8 kPa, x2 = 0.5 | 628.43
240 K, 2493.8 kPa, x2 = 0.25 | 623.95
240 K, 2505.1 kPa, x2 = 0.75 | 633.43
240 K, 2976.4 kPa, x2 = 0.5 | 628.95
240 K, 2987.3 kPa, x2 = 0.25 | 624.47
240 K, 3003.9 kPa, x2 = 0.75 | 633.91
240 K, 3446 kPa, x2 = 0.5 | 629.43
240 K, 3481.8 kPa, x2 = 0.25 | 624.99
240 K, 3507.2 kPa, x2 = 0.75 | 634.38
240 K, 3970.1 kPa, x2 = 0.25 | 625.5
240 K, 3982.7 kPa, x2 = 0.5 | 629.98
240 K, 4015.3 kPa, x2 = 0.75 | 634.92
240 K, 4467.2 kPa, x2 = 0.5 | 630.47
240 K, 4485.6 kPa, x2 = 0.25 | 626.03
240 K, 4509.6 kPa, x2 = 0.75 | 635.35
240 K, 4983.6 kPa, x2 = 0.5 | 630.99
240 K, 5011.3 kPa, x2 = 0.75 | 635.85
240 K, 5024.9 kPa, x2 = 0.25 | 626.58
240 K, 5486.4 kPa, x2 = 0.5 | 631.5
240 K, 5515.8 kPa, x2 = 0.75 | 636.31
240 K, 5519.2 kPa, x2 = 0.25 | 627.11
240 K, 5981.2 kPa, x2 = 0.5 | 631.99
240 K, 6023.5 kPa, x2 = 0.75 | 636.82
240 K, 6067.5 kPa, x2 = 0.25 | 627.64
240 K, 6486.1 kPa, x2 = 0.5 | 632.5
240 K, 6492.4 kPa, x2 = 0.75 | 637.29
240 K, 6517.4 kPa, x2 = 0.25 | 628.1
240 K, 6977 kPa, x2 = 0.25 | 628.56
240 K, 6981 kPa, x2 = 0.5 | 632.99
240 K, 6991.5 kPa, x2 = 0.75 | 637.75
260 K, 496.3 kPa, x2 = 0.75 | 610.36
260 K, 503.7 kPa, x2 = 0.25 | 600.66
260 K, 503.9 kPa, x2 = 0.5 | 605.31
260 K, 979.3 kPa, x2 = 0.25 | 601.29
260 K, 993.2 kPa, x2 = 0.75 | 610.92
260 K, 1011.2 kPa, x2 = 0.5 | 605.96
260 K, 1489.5 kPa, x2 = 0.75 | 611.52
260 K, 1490.8 kPa, x2 = 0.25 | 601.97
260 K, 1508.9 kPa, x2 = 0.5 | 606.59
260 K, 2002.5 kPa, x2 = 0.75 | 612.18
260 K, 2003.1 kPa, x2 = 0.25 | 602.64
260 K, 2010.9 kPa, x2 = 0.5 | 607.22
260 K, 2507.6 kPa, x2 = 0.5 | 607.84
260 K, 2510.1 kPa, x2 = 0.75 | 612.77
260 K, 2511.6 kPa, x2 = 0.25 | 603.29
260 K, 2993.6 kPa, x2 = 0.5 | 608.43
260 K, 2999.7 kPa, x2 = 0.25 | 603.92
260 K, 3016.5 kPa, x2 = 0.75 | 613.4
260 K, 3495.3 kPa, x2 = 0.75 | 613.93
260 K, 3505.2 kPa, x2 = 0.25 | 604.56
260 K, 3514 kPa, x2 = 0.5 | 609.08
260 K, 3991.1 kPa, x2 = 0.5 | 609.66
260 K, 4009.7 kPa, x2 = 0.75 | 614.5
260 K, 4014.1 kPa, x2 = 0.25 | 605.19
260 K, 4508.9 kPa, x2 = 0.5 | 610.27
260 K, 4519.2 kPa, x2 = 0.75 | 615.15
260 K, 4521 kPa, x2 = 0.25 | 605.82
260 K, 5018.2 kPa, x2 = 0.75 | 615.65
260 K, 5023.4 kPa, x2 = 0.25 | 606.44
260 K, 5026.4 kPa, x2 = 0.5 | 610.89
260 K, 5506.4 kPa, x2 = 0.25 | 607.02
260 K, 5512.2 kPa, x2 = 0.75 | 616.21
260 K, 5517.9 kPa, x2 = 0.5 | 611.47
260 K, 6004.4 kPa, x2 = 0.75 | 616.79
260 K, 6023 kPa, x2 = 0.5 | 612.08
260 K, 6028.5 kPa, x2 = 0.25 | 607.65
260 K, 6519.2 kPa, x2 = 0.25 | 608.25
260 K, 6526.2 kPa, x2 = 0.75 | 617.32
260 K, 6531.1 kPa, x2 = 0.5 | 612.67

240 K
Settings | mass density [kg/m3]
x2 = 0.25 | 621.33
x2 = 0.5 | 625.96
x2 = 0.75 | 630.89
